Here are results for 77 compounds from PMC12040169 (PLOS Biology, 2025).

This data set in a line: in vitro. Conditions: human, hela cells, % viability.
As for `O=C(O)CCc1ccc(-c2cccs2)n1-c1ccc(C(=O)O)cc1` [CBK266016], the viability at 28.5 h, 10 µM was found to be 90.9%.
With `COc1ccc(-c2ccc(CCC(=O)O)n2NC(N)=S)cc1` [CBK266018], the viability at 28.5 h, 10 µM worked out at 102%.
Turning to `Cc1cc(C)c(S(=O)(=O)Nc2ccc(S(=O)(=O)Nc3ccc(Cl)cc3Cl)cc2)c(C)c1` [CBK266022], the viability at 28.5 h, 10 µM came to 109%.
For `CC(C)c1ccc(OCCN2CCNCC2)cc1` [CBK266024C], the viability at 28.5 h, 10 µM came to 96%.
With `CN(C)S(=O)(=O)c1ccc(C(=O)Nc2cccc(N3Cc4ccccc4C3)c2)cc1` [CBK266025], the viability at 28.5 h, 10 µM came out at 98.8%.
With `Cc1cc(C)c(OCCCN2CCCCCC2)c(Cl)c1` [CBK266026G], the viability at 28.5 h, 10 µM came to 101%.
`c1ccc(Oc2cccc(OCCCCN3CCNCC3)c2)cc1` [CBK266027G]: the viability at 28.5 h, 10 µM was found to be 92.6%.
Turning to `COc1ccccc1NC(=O)COc1cccc(Cl)c1Cl` [CBK266029], the viability at 28.5 h, 10 µM amounted to 106%.
For `O=C(COc1ccc(NS(=O)(=O)c2ccc3c(c2)Cc2ccccc2-3)cc1)N1CCOCC1` [CBK266030], the viability at 28.5 h, 10 µM was 101%.
For the compound `CCC(Oc1ccccc1)C(=O)Nc1ccccc1-c1ccccc1` (centres unmarked) [CBK266031], the viability at 28.5 h, 10 µM stood at 108%.
Regarding `O=S(=O)(NCCOCc1ccccc1)c1ccc2c(c1)Cc1ccccc1-2` [CBK266032], the viability at 28.5 h, 10 µM stood at 101%.
`COc1ccc(N2C(=O)C3C(CC(C)C)NC4(C(=O)N(CC(=O)Nc5ccc(C)cc5)c5ccccc54)C3C2=O)cc1` (centres unmarked) [CBK266034]: the viability at 28.5 h, 10 µM worked out at 95.9%.
As for `CC(C)(C)NC(=O)CSc1nnc(Cc2cccc3ccccc23)n1-c1ccccc1` [CBK266039], the viability at 28.5 h, 10 µM worked out at 118%.
On to `N#Cc1cccc(CSc2nnc(Nc3ccccc3)n2-c2ccccc2)c1` [CBK266040], for which the viability at 28.5 h, 10 µM is 107%.
As for `Cc1c(Cl)cccc1NC(=O)CSc1nnc(Cc2cccc3ccccc23)n1-c1ccccc1` [CBK266042], the viability at 28.5 h, 10 µM was 98.7%.
In the case of `CNC(=O)CSc1nnc(COc2cccc3ccccc23)n1-c1ccccc1` [CBK266043], the viability at 28.5 h, 10 µM came to 102%.
In the case of `Cc1ccc(SCCN2CCNCC2)cc1` [CBK266045G], the viability at 28.5 h, 10 µM was 99.6%.
Turning to `Cc1ccccc1OCC(=O)Nc1c(C)n[nH]c1C` [CBK266046C], the viability at 28.5 h, 10 µM was determined as 106%.
With `CCOc1ccc(NC(=O)C(C)Sc2nc3ccc(F)cc3[nH]2)cc1` (centres unmarked) [CBK266047], the viability at 28.5 h, 10 µM is 107%.
Consider `Cc1ccc(S(N)(=O)=O)cc1NC(=O)c1ccc(S(=O)(=O)N(C)C)cc1` [CBK266050], for which the viability at 28.5 h, 10 µM was determined as 103%.
In the case of `COc1cc(C(c2c[nH]c3ccccc23)c2c[nH]c3ccccc23)c(Br)cc1OC(C)=O` [CBK266051] it was 107%; in that of `C=CCn1c(SCC(=O)Nc2cccc(C(F)(F)F)c2)nnc1C12CC3CC(CC(C3)C1)C2` [CBK266054], 105%; in that of `N/C(=N\OC(=O)CSc1ccccc1)c1ccccn1` [CBK266056], 105%.
For the compound `Cc1nn(C)c(C)c1NC(=O)c1ccc(S(=O)(=O)N(C)C)cc1` [CBK266059], the viability at 28.5 h, 10 µM worked out at 93.8%.
Take `COc1ccc(NC(=O)CSc2nc3ccccc3n2-c2ccccc2)c([N+](=O)[O-])c1` [CBK266060]: the viability at 28.5 h, 10 µM amounted to 91.8%.
Consider `CCOc1cc(C(c2c[nH]c3ccccc23)c2c[nH]c3ccccc23)cc([N+](=O)[O-])c1O` [CBK266061], for which the viability at 28.5 h, 10 µM stood at 101%.
In the case of `O=C(Nc1ccc(Br)c2cccnc12)c1ccc(COc2ccccc2)cc1` [CBK266062] it was 94.2%.
In the case of `Cc1ccc(OCc2cccc3nsnc23)cc1[N+](=O)[O-]` [CBK266063] it was 98.2%; in that of `O=S1(=O)N=C(N2CCN(Cc3ccc4c(c3)OCO4)CC2)c2ccccc21` [CBK266064], 104%.
As for `Cc1ccc(OCc2nnc(SCc3cccc(C#N)c3)n2Cc2ccccc2)cc1C` [CBK266065], the viability at 28.5 h, 10 µM was found to be 90.5%.
As for `c1ccc(SCCCN2CCNCC2)cc1` [CBK266067G], the viability at 28.5 h, 10 µM came to 100%.
In the case of `CCC(C(=O)Nc1ccccc1C(=O)Nc1c(Cl)cccc1Cl)c1ccccc1` (centres unmarked) [CBK266068], the viability at 28.5 h, 10 µM is 98.4%.
With `C=CCN(CC=C)CCOc1c(C)cc(C)cc1Br` [CBK266070G], the viability at 28.5 h, 10 µM was 110%.
`C=CCc1cccc(Cl)c1OCCN1CCNCC1` [CBK266071G]: the viability at 28.5 h, 10 µM stood at 105%.
Turning to `Cc1ccc(NC(=O)CSc2nnc(C(O)c3ccccc3)n2-c2ccccc2)c(C)c1` (centres unmarked) [CBK266072], the viability at 28.5 h, 10 µM was 106%.
In the case of `COc1ccc(OC)c(NC(=O)CSc2nnc(-c3ccc(F)cc3)n2C)c1` [CBK266073] it was 92%; in that of `COc1cccc(-c2nnc(SCC(=O)Nc3cccc([N+](=O)[O-])c3)n2C)c1` [CBK266074], 106%.
Regarding `O=C(CSc1nnc(-c2ccccc2O)n1Cc1ccccc1)NC12CC3CC(CC(C3)C1)C2` [CBK266075], the viability at 28.5 h, 10 µM came out at 88.9%.
On to `O=c1c2ccccc2nc(SCc2cccc3nsnc23)n1-c1ccccc1` [CBK266076], for which the viability at 28.5 h, 10 µM turned out to be 82.1%.
Under `c1ccc(SCc2nc(-c3cccnc3)no2)cc1` [CBK266078] stands 101%; under `Nn1c(SCC(=O)Nc2cccc3ccccc23)nnc1-c1ccccc1Cl` [CBK266080], 97.7%.
In the case of `O=C(C1=C(O)C(=O)N(CCCn2ccnc2)C1c1ccc(Br)cc1)c1ccc2c(c1)OCCO2` (centres unmarked) [CBK266081], the viability at 28.5 h, 10 µM amounted to 104%.
As to `CC1(C)C2CCC1(CS(=O)(=O)N(Cc1ccccc1)Cc1ccccc1)C(=O)C2` (centres unmarked) [CBK266082], the viability at 28.5 h, 10 µM was determined as 107%.
With `CC(C)(C)c1cc(-c2nc3ccccc3[nH]2)c(O)c(-c2nc3ccccc3[nH]2)c1` [CBK266084], the viability at 28.5 h, 10 µM came out at 90%.
Take `Cc1ccc(OCC(=O)Nc2ccc(N3CCN(Cc4ccccc4)CC3)cc2)cc1C` [CBK266085]: the viability at 28.5 h, 10 µM was found to be 101%.
With `Cc1cc(NC(=O)CSc2nc3c(c(C(F)(F)F)n2)CCc2ccccc2-3)n(-c2ccccc2)n1` [CBK266086], the viability at 28.5 h, 10 µM is 106%.
Turning to `N#CC1=C(N)Oc2[nH]nc(-c3cccs3)c2C1c1ccco1` (centres unmarked) [CBK266088], the viability at 28.5 h, 10 µM turned out to be 99%.
In the case of `O=C(CSc1nc(-c2ccco2)cc(C(F)(F)F)n1)NCc1ccco1` [CBK266091] it was 95.1%; in that of `CCOC(=O)COc1ccc2c(=O)c(Oc3ccc([N+](=O)[O-])cc3)c(C)oc2c1C` [CBK266092], 96.6%; in that of `Cc1ccc(-n2c3c(cc(C(=O)NCCCN4CCOCC4)c2=O)C(=O)CCC3)cc1` [CBK266094], 115%.
`CSCCc1[nH]c(SCC(=O)Nc2cccc3ccccc23)nc1C` [CBK266097]: the viability at 28.5 h, 10 µM worked out at 91.3%.
Regarding `COc1ccc(C(=O)NC(=S)Nc2ccc(N3CCN(C)CC3)cc2)cc1[N+](=O)[O-]` [CBK266098C], the viability at 28.5 h, 10 µM turned out to be 89%.
Regarding `CN1CCN(c2cc(N)nc(N)n2)CC1` [CBK266102], the viability at 28.5 h, 10 µM was 107%.
As to `O=C(COc1ccc2ccccc2c1)Nc1ccc(N2CCN(Cc3ccccc3)CC2)cc1` [CBK266104], the viability at 28.5 h, 10 µM was 98.3%.
Take `O=C(O)C1CC(O)CN1S(=O)(=O)c1ccc(Cl)cc1` (centres unmarked) [CBK266106]: the viability at 28.5 h, 10 µM was determined as 86.8%.
Consider `CC1(C(=O)O)CC(C)(C(=O)O)CC(C)(C(=O)O)C1` (centres unmarked) [CBK266107], for which the viability at 28.5 h, 10 µM came to 91.8%.
Consider `CC(=O)c1cc2c(cc1NC(=O)CSc1nc3ccccc3[nH]1)OCO2` [CBK266110], for which the viability at 28.5 h, 10 µM worked out at 69.8%.
With `COC(=O)c1ccc(NC(=O)CSc2nnc(-c3ccc(C)cc3)n2N)cc1` [CBK266114], the viability at 28.5 h, 10 µM was 89.9%.
Turning to `COc1ccc(-c2cc(C(F)(F)F)nc(SCC(=O)NN3CCN(C)CC3)n2)cc1` [CBK266115], the viability at 28.5 h, 10 µM turned out to be 96.5%.
For the compound `COc1cc(C(=O)Nc2ccc(N3CCN(C)CC3)cc2)ccc1OCc1ccc(Cl)cc1` [CBK266116], the viability at 28.5 h, 10 µM is 99%.
For the compound `CCOC(=O)C1CCN(CC(=O)Nc2ccc(S(N)(=O)=O)cc2)CC1` [CBK266118], the viability at 28.5 h, 10 µM is 94%.
`COc1ccc(C(CCN)c2ccccc2OC)cc1` (centres unmarked) [CBK266125]: the viability at 28.5 h, 10 µM stood at 103%.
Under `COC(=O)C1C(=O)Oc2ccc3ccccc3c2C1C(C)C(=O)c1ccc(Br)cc1` (centres unmarked) [CBK266126] stands 114%; under `CC(Sc1nc2ccccc2[nH]1)C(=O)Nc1ccc(S(N)(=O)=O)cc1` (centres unmarked) [CBK266128], 114%.
Under `O=C(Nc1ccccc1[N+](=O)[O-])C1Cc2ccccc2CN1S(=O)(=O)c1ccc(F)cc1` (centres unmarked) [CBK266129] stands 102%; under `COc1ccc(S(=O)(=O)Nc2ccc3oc4c(c3c2)CC(C)CC4)cc1[N+](=O)[O-]` (centres unmarked) [CBK266131], 94.3%.
As to `Cc1ccc(-n2c(SCC(=O)c3ccc4c(c3)OCO4)nnc2-c2ccncc2)cc1` [CBK266132], the viability at 28.5 h, 10 µM is 104%.
Regarding `O=C(CSc1nnc(-c2cccnc2)n1-c1ccc(Br)cc1)Nc1ccc2c(c1)OCCO2` [CBK266133], the viability at 28.5 h, 10 µM was 96.4%.
Consider `CC(C)C(NC(=O)C(C)(C)Oc1ccc(Cl)cc1)C(=O)O` (centres unmarked) [CBK266138], for which the viability at 28.5 h, 10 µM was 94.5%.
As for `COC(=O)CSc1nnc(COc2ccc3c(c2)OCO3)n1-c1ccccc1` [CBK266139], the viability at 28.5 h, 10 µM is 107%.
Consider `CN1CCN(c2ccc(NC(=O)c3cccc(Br)c3)cc2)CC1` [CBK266140], for which the viability at 28.5 h, 10 µM amounted to 97.5%.
For the compound `S=C(Nc1ccc(Nc2ccccc2)cc1)N1CCN(Cc2ccc3c(c2)OCO3)CC1` [CBK266141], the viability at 28.5 h, 10 µM amounted to 96.7%.
Regarding `CCOC(=O)N1CCN(C(=O)C2CC=CCC2C(=O)O)CC1` (centres unmarked) [CBK266142], the viability at 28.5 h, 10 µM turned out to be 104%.
Consider `S=C(Nc1ccc(Nc2ccccc2)cc1)N1CCN(C/C=C/c2ccccc2)CC1` [CBK266149], for which the viability at 28.5 h, 10 µM was found to be 102%.
With `NC(=O)CSc1nnc(SCc2cccc3ccccc23)s1` [CBK266150], the viability at 28.5 h, 10 µM came to 106%.
As to `CC(=O)OC(COc1cccc(Cl)c1)Cn1cnc2cc(C)c(C)cc21` (centres unmarked) [CBK266152], the viability at 28.5 h, 10 µM was 86.6%.
In the case of `O=C(O)C1CC(O)CN1S(=O)(=O)c1ccc([N+](=O)[O-])cc1` (centres unmarked) [CBK266158], the viability at 28.5 h, 10 µM worked out at 100%.
